Molecular target: T1, HA-S147A CaSR mutant (Rattus norvegicus, UniProt P48442, S147A)
T1 construct: mGluR5 signal peptide (N); expressed in transfected cells; host or cells: HEK293T
T1 sequence (P48442 20-1079 S147A): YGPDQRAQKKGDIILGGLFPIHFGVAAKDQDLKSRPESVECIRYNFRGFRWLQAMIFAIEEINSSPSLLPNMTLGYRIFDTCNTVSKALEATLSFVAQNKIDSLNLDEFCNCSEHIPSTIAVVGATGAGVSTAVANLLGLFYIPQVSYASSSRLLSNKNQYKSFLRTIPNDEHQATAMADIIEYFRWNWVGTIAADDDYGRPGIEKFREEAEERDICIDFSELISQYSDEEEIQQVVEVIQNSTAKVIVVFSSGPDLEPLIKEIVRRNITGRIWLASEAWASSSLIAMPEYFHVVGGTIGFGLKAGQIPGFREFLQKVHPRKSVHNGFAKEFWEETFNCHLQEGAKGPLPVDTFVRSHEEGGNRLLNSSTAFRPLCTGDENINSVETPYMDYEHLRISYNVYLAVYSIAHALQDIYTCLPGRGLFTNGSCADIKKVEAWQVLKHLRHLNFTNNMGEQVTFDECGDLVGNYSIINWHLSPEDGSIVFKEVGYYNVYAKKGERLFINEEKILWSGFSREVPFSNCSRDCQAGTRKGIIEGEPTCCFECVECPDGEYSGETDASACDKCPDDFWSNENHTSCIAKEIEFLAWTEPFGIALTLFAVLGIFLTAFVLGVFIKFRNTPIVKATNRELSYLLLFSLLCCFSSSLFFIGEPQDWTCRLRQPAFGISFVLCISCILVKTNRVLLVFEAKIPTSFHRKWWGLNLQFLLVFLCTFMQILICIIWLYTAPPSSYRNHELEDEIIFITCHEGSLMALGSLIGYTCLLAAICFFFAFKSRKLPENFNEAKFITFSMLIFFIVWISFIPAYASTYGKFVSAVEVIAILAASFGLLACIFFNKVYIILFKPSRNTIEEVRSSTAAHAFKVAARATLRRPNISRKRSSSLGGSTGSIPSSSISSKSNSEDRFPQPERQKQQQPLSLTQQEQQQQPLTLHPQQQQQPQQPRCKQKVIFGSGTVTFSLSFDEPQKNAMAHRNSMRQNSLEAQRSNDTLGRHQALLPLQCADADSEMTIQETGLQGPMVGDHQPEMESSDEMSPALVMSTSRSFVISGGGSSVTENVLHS
Assay: IP-One assay, HEK293T transiently transfected
Format: cell-based

EC50 (Ca^2+ alone): 9.07 mM | Hill coefficient ± S.E.M. (Ca^2+ alone): 3.50 ± 0.26 | pEC50 ± S.E.M. (Ca^2+ alone): 2.04 ± 0.01 | Max ± S.E.M. (normalized to maximum response of WT CaSR): 150 ± 17%
SMILES: [Ca+2] [Ca^2+]
